Results published in PubChem BioAssay AID1963980 (Molecular Pharmacology Branch, DTP, NCI, 2024).

Tested on: 475296-252-R-J1-PDC spheroid viability
Experiment: Anticancer human tumor 475296-252-R-J1-PDC patient-derived rectal carcinoma cell line growth inhibition [PI3K]
Details: spheroids with HUVEC and MSC; for IC50: curve of first compound; for viability, T/C: stronger effect = lower value
Outline: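 Combination activity was assessed by viability in multicellular tumor spheroids carrying HUVEC and MSC components. Agents were tested with PI3K inhibitors from a Cmax-based top dose (or 10 microM) downward in half-log increments.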
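Note: spheroids exposed to agents for seven days before readout.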

In the case of `Cn1cnc2c(F)c(Nc3ccc(Br)cc3Cl)c(C(=O)NOCCO)cc21` + COc1c(OCCCN2CCOCC2)ccc2c3n(c(=NC(=O)c4cnc(N)nc4)nc12)CCN3, the IC50 (second compound 0.00316 µM) is reported as 2050 nM, the IC50 (second compound 0.01 µM) is reported as 469 nM and the IC50 (second compound 0.0316 µM) is reported as 162 nM. The IC50 (second compound 0.1 µM) was 94.2 nM, the IC50 (second compound 0.316 µM) was 27.1 nM and the IC50 (second compound 1 µM) was under 9.49 nM. The viability, T/C (second compound 0.00316 µM, first compound 0.00949 µM) was 88%, the viability, T/C (second compound 0.00316 µM, first compound 0.03 µM) was 75.5% and the viability, T/C (second compound 0.00316 µM, first compound 0.0949 µM) was 73.4%. It also gave a viability, T/C (second compound 0.00316 µM, first compound 0.3 µM) of 60.6%, a viability, T/C (second compound 0.00316 µM, first compound 0.949 µM) of 62.5% and a viability, T/C (second compound 0.00316 µM, first compound 3 µM) of 44.2%. The viability, T/C (second compound 0.01 µM, first compound 0.00949 µM) was 90.6%, the viability, T/C (second compound 0.01 µM, first compound 0.03 µM) was 90% and the viability, T/C (second compound 0.01 µM, first compound 0.0949 µM) was 63%. It also gave a viability, T/C (second compound 0.01 µM, first compound 0.3 µM) of 53.3%, a viability, T/C (second compound 0.01 µM, first compound 0.949 µM) of 53.8% and a viability, T/C (second compound 0.01 µM, first compound 3 µM) of 36.9%. It also gave a viability, T/C (second compound 0.0316 µM, first compound 0.00949 µM) of 84.1%, a viability, T/C (second compound 0.0316 µM, first compound 0.03 µM) of 63.3% and a viability, T/C (second compound 0.0316 µM, first compound 0.0949 µM) of 56.3%. It also gave a viability, T/C (second compound 0.0316 µM, first compound 0.3 µM) of 42.6%, a viability, T/C (second compound 0.0316 µM, first compound 0.949 µM) of 37% and a viability, T/C (second compound 0.0316 µM, first compound 3 µM) of 18.8%. It also gave a viability, T/C (second compound 0.1 µM, first compound 0.00949 µM) of 65%, a viability, T/C (second compound 0.1 µM, first compound 0.03 µM) of 67.6% and a viability, T/C (second compound 0.1 µM, first compound 0.0949 µM) of 48.7%. For the same compound, the viability, T/C (second compound 0.1 µM, first compound 0.3 µM) was 25.6%, the viability, T/C (second compound 0.1 µM, first compound 0.949 µM) was 16.5% and the viability, T/C (second compound 0.1 µM, first compound 3 µM) was 6.68%. The viability, T/C (second compound 0.316 µM, first compound 0.00949 µM) was 55.9%, the viability, T/C (second compound 0.316 µM, first compound 0.03 µM) was 49.8% and the viability, T/C (second compound 0.316 µM, first compound 0.0949 µM) was 29.4%. It also gave a viability, T/C (second compound 0.316 µM, first compound 0.3 µM) of 10.7%, a viability, T/C (second compound 0.316 µM, first compound 0.949 µM) of 5.48% and a viability, T/C (second compound 0.316 µM, first compound 3 µM) of 2.56%. It also gave a viability, T/C (second compound 1 µM, first compound 0.00949 µM) of 47.1%, a viability, T/C (second compound 1 µM, first compound 0.03 µM) of 41.5% and a viability, T/C (second compound 1 µM, first compound 0.0949 µM) of 22.2%. For the same compound, the viability, T/C (second compound 1 µM, first compound 0.3 µM) was 9.1%, the viability, T/C (second compound 1 µM, first compound 0.949 µM) was 5.23% and the viability, T/C (second compound 1 µM, first compound 3 µM) was 3.35%.
